Reference: PubChem BioAssay AID1963969 (Molecular Pharmacology Branch, DTP, NCI, 2024)
Values joined by “and” are separate entries in the source; they are usually repeats but may differ in a detail not shown here. Equal entries are not always repeated.

System: 817829-284-R-J1-PDC multi-cell spheroid viability
Experiment: Anticancer human tumor 817829-284-R-J1-PDC patient-derived colon adenocarcinoma cell line growth inhibition [PI3K]
Details: for viability, T/C: stronger effect = lower value
Source text: Combinatorial screen of targeted agents with the PI3K inhibitors inavolisib, alpelisib, duvelisib, and copanlisib in multi-cell type tumor spheroids
A high-throughput screen of multi-cell type tumor spheroids was designed to identify active combinations of targeted small molecules and PI3K pathway inhibitors. Complex spheroids include a stromal component modeled by human endothelial cells (HUVEC) and fibroblasts modeled by human mesenchymal stem cells (MSCs). The concentration ranges selected for each drug and investigational agent were based upon clinically achievable concentrations if the clinical Cmax of the agent was known.
Compounds. The drugs and investigational agents: inavolisib (NSC800729), alpelisib (NSC765974), duvelisib (NSC772469), copanlisib (NSC816437), ipatasertib (NSC767898), afuresertib (NSC778305), talazoparib (NSC767125), sapanisertib (NSC764658), selumetinib (NSC741078), tovorafenib (DAY101, NSC766906), vemurafenib (NSC761431), ravoxertinib (NSC781343), sotorasib (NSC818433), MRTX1133 (NSC 836407), abemaciclib (NSC 768073), palbociclib (NSC758247), venetoclax (NSC 766270), SY5609 (NSC837396), enzalutamide (NSC755605), and darolutamide (NSC825331), were obtained from the National Cancer Institute (NCI) Developmental Therapeutics Program Chemical Repository. The FDA-approved anticancer drug set is available from the NCI Developmental Therapeutics Program. […] The stock solutions were prepared in dimethyl sulfoxide (DMSO, Sigma-Aldrich, St. Louis, MO, cat. D2650) at 800-fold the tested concentration and stored at -70 degrees C prior to their use. All drugs and investigational agents were tested over a range starting from a high concentration at or near the clinical Cmax and decreasing in half-log increments. If the clinical Cmax for an agent had not been determined, the highest concentration tested was 10 microM.
Cell Culture. All cells were maintained in an incubator at 37 degrees C and 5% CO2 with 95% humidity. The PDC lines were cultured according to standard operating procedures established by the NCI PDMR (https://pdmr.cancer.gov/sops/default.htm). All PDCs were thawed and cultured in Matrigel-coated flasks prepared with a working solution of 1X Ham's F-12 nutrient mix, without supplementation (Invitrogen, Waltham, MA, cat. 11765054), 100 U/mL penicillin-streptomycin (Invitrogen, cat. 15140122), and 2.5% Matrigel (Corning Inc., Corning, NY, cat. 354248) for the first three passages. The 354836-022-R-J1-PDC, 475296-252-R-J1-PDC, and 997726-040-R-J2-PDC lines were cultured in 6A media, which includes advanced DMEM/F-12 (Thermo Fisher Scientific, cat. 12634028), 10 mM HEPES (Thermo Fisher Scientific, cat. 15630080), 1X GlutaMAX supplement (Thermo Fisher Scientific, cat. 35050061), 0.1 mg/mL primocin (InvivoGen, San Diego, CA, cat. ant-pm-2), 10% defined fetal bovine serum, heat inactivated (HyClone Laboratories Inc., Logan, UT, cat. SH30070.03HI), 50% L-WRN conditioned media (ATCC, cat. CRL-3276), 1.25 mM N-Acetyl-L-cysteine (Sigma-Aldrich, cat. A9165), 10 mM nicotinamide (Sigma-Aldrich, cat. N0636), 1X B-27 supplement (Thermo Fisher Scientific, cat. 17504044), 1X N-2 supplement (Thermo Fisher Scientific, cat. 17502048), and 10 microM Y-27632 dihydrochloride (Tocris Bioscience, Bristol, United Kingdom, cat. 1254). The 624824-186-R-J2-PDC line was cultured in 6C/Colon 1B media, which includes all 6A media components plus 50 ng/mL human EGF recombinant protein (Thermo Fisher Scientific, cat. PHG0311). […]

[1] = compound alone, run of 04/24/2023
[2] = compound alone, run of 04/25/2023
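Further: spheroids exposed to agents for seven days before readout.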
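Wherever viability, T/C is given: percent of vehicle DMSO control viability which is 100%.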

Compound	viability, T/C (compound 0.0316 µM)	viability, T/C (compound 0.1 µM)	viability, T/C (compound 0.316 µM)	viability, T/C (compound 1 µM)	viability, T/C (compound 3.16 µM)	viability, T/C (compound 10 µM)	IC50 (curve of compound)	other results
C#Cc1c(F)ccc2cc(O)cc(-c3ncc4c(N5CC6CCC(C5)N6)nc(OCC56CCCN5CC(F)C6)nc4c3F)c12 (configuration not stated)	83.3% and 99%	95.1% and 72.9%	69.9% and 83%	68.4% and 99.7%	87.7% and 88.6%	33.2% and 56.2%	6660 nM and > 10000 nM	
C=CC(=O)N1CCN(c2nc(=O)n(-c3c(C)ccnc3C(C)C)c3nc(-c4c(O)cccc4F)c(F)cc23)C(C)C1 (configuration not stated)	90.5% and 112%	107% and 70.5%	70.2% and 97.6%	104% and 120%	85.3% and 104%	44.3% and 48.8%	8660 nM and 9740 nM	
CC(=O)c1c(C)c2cnc(Nc3ccc(N4CCNCC4)cn3)nc2n(C2CCCC2)c1=O	54.6% [middle of 4 runs]	39.3% [middle of 4 runs]						
CC(C)NCC(C(=O)N1CCN(c2ncnc3c2C(C)CC3O)CC1)c1ccc(Cl)cc1 (configuration not stated)	74.6% and 90.4%	61.1% and 54.8%	38.5% and 41.4%	28% and 27.8%	21% and 17.3%	10.7% and 10.9%	179 nM and 168 nM	
CC(C)n1nc(-c2ccc3oc(N)nc3c2)c2c(N)ncnc21	58.9% and 37.7% and 41.6%	21.2% and 24% and 17.7%					33 nM and 20.9 nM and 24.6 nM	viability, T/C (compound 0.000316 µM): 54.7% and 69.8% and 94.8%; viability, T/C (compound 0.001 µM): 120% and 96.8% and 70%; viability, T/C (compound 0.00316 µM): 68.2% and 77.3% and 63.2%; viability, T/C (compound 0.01 µM): 52.8% and 72.2% and 93.4%
CC(Cn1ccc(-c2ccc(C#N)c(Cl)c2)n1)NC(=O)c1cc(C(C)O)[nH]n1 (configuration not stated)							> 10000 nM	
CC(Nc1ccc2c(c1)OCCn1cc(N3C(=O)OCC3C(F)F)nc1-2)C(N)=O (configuration not stated)								viability, T/C (compound 0.00316 µM): 82.8% [middle of 6 runs]; IC50 [1]: > 1000 nM and 280 nM and 1000 nM
CC(Nc1ncnc2nc[nH]c12)c1cc2cccc(Cl)c2c(=O)n1-c1ccccc1 (configuration not stated)	98.7% and 80.4%	78.1% and 107%	98.9% and 104%	89% and 74.1%	82.9% and 94.8%	66% and 70.4%		IC50 [2]: > 10000 nM
CC1(C)CCC(CN2CCN(c3ccc(C(=O)NS(=O)(=O)c4ccc(NCC5CCOCC5)c([N+](=O)[O-])c4)c(Oc4cnc5[nH]ccc5c4)c3)CC2)=C(c2ccc(Cl)cc2)C1	66.2% and 63.1% and 99.8%	60.4% and 90.3% and 105%	60.5% and 85.7% and 66.8%	84.6% and 95.4% and 97.1%	98.1% and 98.5% and 56.7%		> 10000 nM and 5630 nM and 3670 nM	
CC1(C)CCC(Nc2ncc(C(F)(F)F)c(-c3c[nH]c4c(P(C)(C)=O)c(C#N)ccc34)n2)CN1 (configuration not stated)	25.3% and 24.7%	25% and 26.2%	27.4% and 32.9%	30.6% and 31.8%	32.7% and 38.6%	0.65% and 1.29%	< 31.6 nM	
CCCS(=O)(=O)Nc1ccc(F)c(C(=O)c2c[nH]c3ncc(-c4ccc(Cl)cc4)cc23)c1F	91.8% and 75.6% and 87.7%	75.9% and 81.4% and 57.4%	82.7% and 65.9% and 44.2%	90% and 62.3% and 54.9%	68% and 89.2% and 50.6%	7.12% and 5.31% and 3%	4450 nM and 4780 nM and 1420 nM	
CCN1CCN(Cc2ccc(Nc3ncc(F)c(-c4cc(F)c5nc(C)n(C(C)C)c5c4)n3)nc2)CC1	61.9% and 73.5%	68.2% and 59.2%	55.8% and 49.5%	58% and 51%			> 1000 nM	viability, T/C (compound 0.00316 µM): 81.3% and 60.8%; viability, T/C (compound 0.01 µM): 103% and 82.2%
CNC(=O)c1ccc(N2C(=S)N(c3ccc(C#N)c(C(F)(F)F)c3)C(=O)C2(C)C)cc1F	86.9% and 87.2% and 88.4%	93.2% and 97.5% and 76.6%	70.6% and 71.9% and 77.2%	99.3% and 68.8% and 80.3%	84.2% and 97.4% and 67.9%	65.4% and 29% and 68.9%	> 10000 nM and 6480 nM	
COc1c(OCCCN2CCOCC2)ccc2c3n(c(=NC(=O)c4cnc(N)nc4)nc12)CCN3	60.5% [middle of 6 runs]	39.5% [middle of 6 runs]	21.5% [middle of 6 runs]	10.1% [middle of 6 runs]				viability, T/C (compound 0.01 µM): 83.5% [middle of 6 runs]; IC50 [2]: 58.3 nM [middle of 6 runs]
C[C@@H](NC(=O)c1ncnc(N)c1Cl)c1ncc(C(=O)Nc2cc(C(F)(F)F)c(Cl)cn2)s1	97.5% and 79.4%	79.2% and 114%	89.2% and 87.8%	70.5% and 67%	113% and 64.2%	59.5% and 101%	> 10000 nM	
Cc1nc(NC(=O)N2CCCC2C(N)=O)sc1-c1ccnc(C(C)(C)C(F)(F)F)c1 (configuration not stated)						68.7% [middle of 6 runs]		IC50 [1]: > 10000 nM
Cn1cnc2c(F)c(Nc3ccc(Br)cc3Cl)c(C(=O)NOCCO)cc21							901 nM and 649 nM	viability, T/C (compound 0.00949 µM): 87.3% and 90.1%; viability, T/C (compound 0.03 µM): 70.7% and 64.5%; viability, T/C (compound 0.0949 µM): 65% and 73.3%; viability, T/C (compound 0.3 µM): 62.5% and 52.7%; viability, T/C (compound 0.949 µM): 55.5% and 55.6%; viability, T/C (compound 3 µM): 33.4% and 21.9%
Cn1ncc(Cl)c1-c1cc(C(=O)NC(CN)Cc2cccc(F)c2)sc1Cl (configuration not stated)	52.7% and 85.2%	47.4% and 54.1%	31.6% and 27.1%	18.3% and 22.5%	16.1% and 20.2%	76.6% and 13.4%	< 31.6 nM and 118 nM	
Cn1nccc1Nc1nccc(-c2ccn(C(CO)c3ccc(Cl)c(F)c3)c(=O)c2)n1 (configuration not stated)	100% and 96.5%	68.5% and 79.2%	84.3% and 83.6%	110% and 86.8%	71.2% and 81.6%	26% and 39.2%	5420 nM and 7460 nM	
Cn1ncnc1[C@H]1c2n[nH]c(=O)c3cc(F)cc(c23)N[C@@H]1c1ccc(F)cc1	55.6% and 55%	41.3% and 46.6%					51.4 nM and 62.8 nM	viability, T/C (compound 0.000316 µM): 113% and 70.3%; viability, T/C (compound 0.001 µM): 106% and 90.1%; viability, T/C (compound 0.00316 µM): 83.9% and 67%; viability, T/C (compound 0.01 µM): 75.3%
